Measured values: patent US20200068890A1 (Person to Whom the Inventor is Obligated to Assign, priority 2017, published 2020)

Tests used:
A. thaliana DHDPS = system: T1, A. thaliana DHDPS; experiment: DHDPS-DHDPR coupled assay, dose response inhibitor assay; format: biochemical, Arabidopsis thaliana
T1 construct: AtDHDPS|10|0.00008; no borders, domain or tags given
Description: DHDPS enzyme activity was determined using the coupled assay in a Cary 4000 UV/Vis spectrophotometer at 340 nm in 1 cm acrylic cuvettes. A master mix was prepared for each reaction as per Table 1. Reaction mixtures containing enzymes, pyruvate, buffer and NADPH were incubated at 30° C. for 12 mins before the addition of ASA to initiate the reaction. The oxidation of NADPH to NADP^+ was then monitored at 340 nm at 30° C. as a function of time. The initial rate (ΔA340·min^−1) was calculated from the slope of the linear portion of the A340 versus time profile. All experiments were carried out in triplicate. The enzyme kinetic parameters, including KM values, were determined using the Michaelis-Menten equation (Equation 1). Unless otherwise stated, all kinetic data were fitted using the built-in equations in GraphPad Prism.
To determine/C50 values for the inhibitors, A. thaliana DHDPS enzyme activity was measured using the coupled assay (detailed above) in the presence of increasing concentrations of inhibitor. The initial rate was then plotted as a function of the log 10 of the inhibitor concentration and the/C50 determined according to Equation 2.

[1] = system: human kidney cells (HEK293); experiment: MTT viability assay; conditions: for % Viability Remaining 1 / % Viability Remaining 2 / % Viability Remaining 3: 48 hrs
Description: (§1) Cells were harvested and resuspended in growth media (5-10 ml) to count. Cells were diluted to the appropriate concentration (5×10^3), and seeded into 96-well plates as follows: (a) 50 μl of cells per well, (b) 100 μl of growth media in the Blank wells, (c) 100 μl PBS in outer wells (to prevent dehydration of media from the cells). Cells were incubated overnight at 37° C. (5% CO2).
(§2) Compounds were prepared as serial dilutions in growth media. Each treatment concentration was performed in triplicate. 50 μl/well of prepared compound was added to cells.
(§3) A no treatment triplicate (100% viability) was also included by adding 50 μl of growth media to cells. Plates were returned to the incubator for 48 hrs.
(§4) MTT powder in 1×PBS was prepared at 5 mg/ml and filter sterilised. MTT was added to serum-free media to a final concentration of 1 mg/ml. 100 μl of the MTT solution (1 mg/ml) was added to each well, including 0 μM and blank wells. Plates were incubated at 37° C. in incubator for 3 hrs. Following incubation, the media was removed from wells without disrupting the purple crystals formed. 100 μl of DMSO was added to each well using a multichannel pipette. The plates were shaken on the plate shaker until all the crystals have dissolved. The absorbance was measured at 570 nm using a plate reader. The data was analysed using Microsoft Excel. For each treatment concentration the average was calculated, the blank was subtracted and the cell viability was determined as a percentage of the no treatment control (DMSO vehicle control).

[2] = system: human liver cells (HepG2); experiment: MTT viability assay; conditions: for % viability 1 / % viability 2 / % viability 3: 48 hrs
Description: as §1, §2, §3, §4

In the case of `COc1ccc(/C=C2\NC(=O)N(CC(=O)O)C2=O)cc1` [Compound 42, (Z)-2-(4-(4-Methoxybenzylidene)-2,5-dioxoimidazolidin-1-yl)acetic Acid], the IC50 (A. thaliana DHDPS) is reported as 66.1 µM, the “% Viability Remaining 1” value ([1]; HEK293, 12.5 μM) is reported as 104% and the “% Viability Remaining 2” value ([1]; HEK293, 12.5 μM) is reported as 93.9%. The “% Viability Remaining 3” value ([1]; HEK293, 12.5 μM) was 87.6%, the “% Viability Remaining 1” value ([1]; HEK293, 25 μM) was 110% and the “% Viability Remaining 2” value ([1]; HEK293, 25 μM) was 93.9%. The “% Viability Remaining 3” value ([1]; HEK293, 25 μM) was 87.6%, the “% Viability Remaining 1” value ([1]; HEK293, 50 μM) was 80.6% and the “% Viability Remaining 2” value ([1]; HEK293, 50 μM) was 94.5%. The “% Viability Remaining 3” value ([1]; HEK293, 50 μM) was 98.9%, the “% Viability Remaining 1” value ([1]; HEK293, 100 μM) was 110% and the “% Viability Remaining 2” value ([1]; HEK293, 100 μM) was 107%. For the same molecule, the “% Viability Remaining 3” value ([1]; HEK293, 100 μM) was 115%, the “% Viability Remaining 1” value ([1]; HEK293, 200 μM) was 94.0% and the “% Viability Remaining 2” value ([1]; HEK293, 200 μM) was 99.6%. For the same molecule, the “% Viability Remaining 3” value ([1]; HEK293, 200 μM) was 94.1%, the “% Viability Remaining 1” value ([1]; HEK293, 400 μM) was 105% and the “% Viability Remaining 2” value ([1]; HEK293, 400 μM) was 103%. For the same molecule, the “% Viability Remaining 3” value ([1]; HEK293, 400 μM) was 80.9%, the “toxicity to HEK293 cells (in words)” value ([1]; HEK293, MTT, up to 400 μM (Defensin 100 μM)) was “effectively nontoxic” and the “% viability 1” value ([2]; HepG2, 12.5 μM) was 81.0%. The “% viability 2” value ([2]; HepG2, 12.5 μM) was 99.1%, the “% viability 3” value ([2]; HepG2, 12.5 μM) was 70.9% and the “% viability 1” value ([2]; HepG2, 25 μM) was 81.0%. For the same molecule, the “% viability 2” value ([2]; HepG2, 25 μM) was 99.1%, the “% viability 3” value ([2]; HepG2, 25 μM) was 70.9% and the “% viability 1” value ([2]; HepG2, 50 μM) was 88.8%. For the same molecule, the “% viability 2” value ([2]; HepG2, 50 μM) was 98.3%, the “% viability 3” value ([2]; HepG2, 50 μM) was 90.4% and the “% viability 1” value ([2]; HepG2, 100 μM) was 88.0%. The “% viability 2” value ([2]; HepG2, 100 μM) was 86.0%, the “% viability 3” value ([2]; HepG2, 100 μM) was 84.1% and the “% viability 1” value ([2]; HepG2, 200 μM) was 98.4%. For the same molecule, the “% viability 2” value ([2]; HepG2, 200 μM) was 101%, the “% viability 3” value ([2]; HepG2, 200 μM) was 82.4% and the “% viability 1” value ([2]; HepG2, 400 μM) was 80.9%. For the same molecule, the “% viability 2” value ([2]; HepG2, 400 μM) was 82.9%, the “% viability 3” value ([2]; HepG2, 400 μM) was 82.1% and the “toxicity to HepG2 cells (in words)” value ([2]; HepG2, MTT, up to 400 μM (Defensin 100 μM)) was “effectively nontoxic”.

In the case of `O=C(O)CN1C(=O)S/C(=C\c2ccc(O)cc2)C1=O` [Compound 12, (Z)-2-(5-(4-Hydroxybenzylidene)-2,4-dioxothiazolidin-3-yl)acetic Acid], the IC50 (A. thaliana DHDPS) is reported as 103 µM.
